Residues, ends and D or L forms follow the SMILES beside them.

The target of series [1] is NAD-dependent protein deacylase sirtuin-5, mitochondrial (Homo sapiens, UniProt Q9NXA8). In words: Inhibition of desuccinylation activity of recombinant human full length N-terminal GST-tagged SIRT5 expressed in Escherichia coli using CH3CONH-AR-[Nepsilon-succinyl-lysine]-ST-CONH2 as substrate measured after 5 mins by HPLC analysis.
Series [2] has as its target T1, NAD-dependent protein deacetylase sirtuin-1 (Homo sapiens, UniProt Q96EB6).
T1 sequence (Q96EB6 whole entry): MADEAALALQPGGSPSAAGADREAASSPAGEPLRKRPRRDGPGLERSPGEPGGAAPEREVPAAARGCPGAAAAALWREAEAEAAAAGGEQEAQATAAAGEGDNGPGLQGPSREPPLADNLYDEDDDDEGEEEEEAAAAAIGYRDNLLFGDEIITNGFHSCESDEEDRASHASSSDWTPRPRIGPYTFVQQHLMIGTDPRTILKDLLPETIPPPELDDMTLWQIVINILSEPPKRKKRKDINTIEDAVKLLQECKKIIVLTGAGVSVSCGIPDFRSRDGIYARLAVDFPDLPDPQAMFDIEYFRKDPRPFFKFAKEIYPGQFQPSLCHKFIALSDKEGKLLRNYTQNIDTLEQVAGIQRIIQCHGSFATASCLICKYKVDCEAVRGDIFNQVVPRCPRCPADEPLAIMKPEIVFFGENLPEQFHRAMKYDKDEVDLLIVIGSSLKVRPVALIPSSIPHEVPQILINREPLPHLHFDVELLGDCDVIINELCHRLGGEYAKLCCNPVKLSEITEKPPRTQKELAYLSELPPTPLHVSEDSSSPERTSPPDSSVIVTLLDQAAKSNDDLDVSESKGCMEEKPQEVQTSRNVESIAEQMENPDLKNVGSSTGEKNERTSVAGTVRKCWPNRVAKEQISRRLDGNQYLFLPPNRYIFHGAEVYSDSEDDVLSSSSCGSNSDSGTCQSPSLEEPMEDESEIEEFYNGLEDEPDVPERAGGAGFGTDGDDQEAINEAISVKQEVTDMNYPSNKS
The experiment in a line: Inhibition of recombinant human SIRT1 deacetylase activity using H2N-HK-[Nepsilon-acetyl-lysine]-LM-COOH as substrate measured after 10 mins by HPLC analysis.

Series [3] deals with NAD-dependent protein deacylase sirtuin-6 (Homo sapiens, UniProt Q8N6T7). In words: Inhibition of demyristoylation activity of recombinant human full length N-terminal His6-tagged SIRT6 expressed in Escherichia coli using H2N-EALPK-[Nepsilon-myristoyl-lysine]-TGGPQ-CONH2 as substrate measured after 12 mins by HPLC analysis.
Series [4] can be described thus: Proteolytic stability of the compound assessed as Streptomyces griseus pronase-mediated compound hydrolysis by measuring parent compound remaining after 6 mins by HPLC method. Format: ADME. The note with it: read-out: Stability.
The target of series [5] is T2, NAD-dependent protein deacetylase sirtuin-3, mitochondrial (Homo sapiens, UniProt Q9NTG7).
T2 sequence (Q9NTG7 whole entry): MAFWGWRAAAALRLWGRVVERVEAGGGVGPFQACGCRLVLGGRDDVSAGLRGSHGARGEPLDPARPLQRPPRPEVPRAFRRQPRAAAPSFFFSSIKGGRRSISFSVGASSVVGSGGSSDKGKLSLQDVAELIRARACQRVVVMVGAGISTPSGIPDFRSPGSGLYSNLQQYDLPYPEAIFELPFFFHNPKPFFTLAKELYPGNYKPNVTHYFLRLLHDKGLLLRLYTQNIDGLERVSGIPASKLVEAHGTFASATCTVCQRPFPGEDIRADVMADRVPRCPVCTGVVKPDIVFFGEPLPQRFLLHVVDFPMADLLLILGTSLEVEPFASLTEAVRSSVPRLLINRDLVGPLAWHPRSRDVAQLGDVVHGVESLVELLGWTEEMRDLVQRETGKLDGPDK
In words: Inhibition of deacetylation activity of recombinant human N-terminal His6-tagged SIRT3 (101 to 399 residues) expressed in Escherichia coli using H2N-HK-[Nepsilon-acetyl-lysine]-LM-COOH as substrate measured after 10 mins by HPLC analysis.

The target of series [6] is T3, NAD-dependent protein deacetylase sirtuin-2 (Homo sapiens, UniProt Q8IXJ6).
T3 sequence (Q8IXJ6 whole entry): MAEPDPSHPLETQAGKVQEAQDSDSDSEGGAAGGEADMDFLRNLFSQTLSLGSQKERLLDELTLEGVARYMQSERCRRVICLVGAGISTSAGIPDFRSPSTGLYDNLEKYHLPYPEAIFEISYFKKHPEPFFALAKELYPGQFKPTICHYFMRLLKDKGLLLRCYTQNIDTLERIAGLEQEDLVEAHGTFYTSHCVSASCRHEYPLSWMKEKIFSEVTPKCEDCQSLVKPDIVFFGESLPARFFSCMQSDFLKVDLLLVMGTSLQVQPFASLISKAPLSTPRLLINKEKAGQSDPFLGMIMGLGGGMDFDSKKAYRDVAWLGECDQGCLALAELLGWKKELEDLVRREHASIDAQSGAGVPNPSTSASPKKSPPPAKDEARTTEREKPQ
The experiment in a line: Inhibition of deacetylation activity of recombinant human N-terminal His6-tagged SIRT2 (2 to 389 residues) expressed in Escherichia coli using H2N-HK-[Nepsilon-acetyl-lysine]-LM-COOH as substrate measured after 12 mins by HPLC analysis.

The target in series [7] is T4, NAD-dependent protein deacetylase sirtuin-7 (Homo sapiens, UniProt Q9NRC8).
T4 sequence (Q9NRC8 whole entry): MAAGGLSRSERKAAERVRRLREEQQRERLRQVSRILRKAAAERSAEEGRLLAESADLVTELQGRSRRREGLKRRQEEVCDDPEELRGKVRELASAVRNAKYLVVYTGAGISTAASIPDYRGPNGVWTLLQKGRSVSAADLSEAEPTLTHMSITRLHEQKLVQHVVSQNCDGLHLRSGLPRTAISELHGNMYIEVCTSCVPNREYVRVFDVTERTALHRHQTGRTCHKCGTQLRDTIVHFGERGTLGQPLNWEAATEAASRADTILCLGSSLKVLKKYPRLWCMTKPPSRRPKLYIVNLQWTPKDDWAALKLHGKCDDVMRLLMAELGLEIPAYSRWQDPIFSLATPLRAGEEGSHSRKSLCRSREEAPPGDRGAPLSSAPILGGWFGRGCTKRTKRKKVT
The experiment in a line: Inhibition of tRNA-activated deacetylation activity of recombinant human full length N-terminal His6-tagged SIRT7 expressed in Escherichia coli using H2N-GGKAPR-[Nepsilon-acetyl-lysine]-QLATKA-CONH2 as substrate measured after 30 mins by HPLC analysis.

NAD-dependent protein deacylase sirtuin-5, mitochondrial, sequence (Q9NXA8 whole entry): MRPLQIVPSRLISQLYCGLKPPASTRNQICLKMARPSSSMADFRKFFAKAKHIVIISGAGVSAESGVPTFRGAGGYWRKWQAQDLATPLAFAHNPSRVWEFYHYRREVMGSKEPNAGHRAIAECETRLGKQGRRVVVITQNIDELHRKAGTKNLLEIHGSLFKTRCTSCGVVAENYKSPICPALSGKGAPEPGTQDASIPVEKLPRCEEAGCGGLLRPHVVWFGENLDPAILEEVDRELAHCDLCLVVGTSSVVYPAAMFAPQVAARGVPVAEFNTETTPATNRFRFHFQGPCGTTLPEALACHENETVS
NAD-dependent protein deacylase sirtuin-6, sequence (Q8N6T7 whole entry): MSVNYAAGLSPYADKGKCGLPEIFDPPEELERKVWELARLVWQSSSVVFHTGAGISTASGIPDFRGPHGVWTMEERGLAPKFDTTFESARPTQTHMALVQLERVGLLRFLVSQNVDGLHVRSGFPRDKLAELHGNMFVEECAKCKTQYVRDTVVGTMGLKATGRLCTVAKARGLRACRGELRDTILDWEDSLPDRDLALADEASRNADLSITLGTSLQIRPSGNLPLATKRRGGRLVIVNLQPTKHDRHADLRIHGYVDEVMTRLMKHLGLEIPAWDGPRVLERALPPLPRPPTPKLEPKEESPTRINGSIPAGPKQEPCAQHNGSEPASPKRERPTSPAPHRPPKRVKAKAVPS

Regarding `CCCCCCCCCCCCNC(=O)CCCCC[C@@H]1NC(=O)[C@H](CCCNC(=N)N)NC(=O)CNC(=O)CCC(=O)NCC(=O)NCCCC[C@@H](C(N)=O)NC1=O`, the IC50 in series [1] is > 200 µM; in series [2] it was 4.3 µM; in series [3] it was 11.2 µM; in series [5], 4200 nM; in series [6], 0.55 µM; in series [7], 5 µM. Besides, the remaining at 0.1 h in series [4] worked out at 89.9%.
In the case of `CCCCCCCCCCCCNC(=S)NCCCC[C@@H]1NC(=O)[C@H](CCCNC(=N)N)NC(=O)CNC(=O)CCC(=O)NCC(=O)NCCCC[C@@H](C(N)=O)NC1=O`, the IC50 in series [1] is > 150 µM; in series [2], 1.8 µM; in series [3], 7.9 µM; in series [5], 1600 nM; in series [6] it was 10.3 µM; in series [7], 11.1 µM. Also, the remaining at 0.1 h in series [4] was 55.7%.
For the molecule `CCCCCCCCCCCCCCNC(=S)NCCCC[C@@H]1NC(=O)[C@H](CCCNC(=N)N)NC(=O)CNC(=O)CCC(=O)NCC(=O)NCCCC[C@@H](C(N)=O)NC1=O`, the half-inhibitory concentration (IC50) in series [7] was determined as 85.3 µM.
In the case of `CSCC[C@H](NC(=O)[C@H](CC(C)C)NC(=O)[C@H](CCCCNC(C)=O)NC(=O)[C@H](CCCCN)NC(=O)[C@@H](N)Cc1cnc[nH]1)C(=O)O` (H-HKK(Ac)LM-OH), the remaining at 0.1 h in series [4] was 51.1%.

The term IC50 denotes the concentration that inhibits the measured activity by half.

For the origin of these results see ChEMBL document CHEMBL4371077, “Cyclic tripeptide-based potent human SIRT7 inhibitors” (Bioorg Med Chem Lett, 2019).
